Values belong to the molecule of their own block, whether it stands above or below them.
Assays:
Sirt2 (demyristoylation) = biological target: T1, Sirt2 (demyristoylation) (Homo sapiens, UniProt Q8IXJ6); assay: Discontinuous Sirt2 demyristoylation assay (ZMML substrate); type: biochemical; conditions: for IC50: mean ± SD
T1 construct: the respective sirtuin (Sirt1_134–747, Sirt2_56–356, or Sirt3_118–395) was mixed with; made in house; host or cells: Escherichia coli BL21 Star (DE3)
T1 sequence (Q8IXJ6 56-356): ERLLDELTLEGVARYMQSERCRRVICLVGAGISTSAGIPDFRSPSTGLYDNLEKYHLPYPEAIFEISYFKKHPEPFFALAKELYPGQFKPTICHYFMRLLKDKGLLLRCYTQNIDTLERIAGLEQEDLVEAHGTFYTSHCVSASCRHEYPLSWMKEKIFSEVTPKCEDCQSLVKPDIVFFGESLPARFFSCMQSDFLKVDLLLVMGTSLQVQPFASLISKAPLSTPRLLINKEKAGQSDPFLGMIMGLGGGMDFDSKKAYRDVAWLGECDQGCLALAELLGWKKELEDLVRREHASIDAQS

[1] = system: PC-3M-luc prostate cancer cells; assay: Cell viability assay (MTS) PC-3M-luc; type: cell-based; conditions: 72 h; for PC-3M-luc cellular effect: @ 50 μM
Protocol: (§1) Cell viability assays of HGC27 and PC-3M-luc cells were performed by using the Celltiter 96 Aqueous Nonradioactive Proliferation Assay (Promega). Cells were seeded in sterile 96-well plates at a density of 2000 cells per well and incubated overnight at 37 °C and 5% CO2. Compound or vehicle were added to a final concentration of 0.5% DMSO. […] Cells were seeded at densities of 10^4 cells/well for W1 cells or 2 × 10^3 cells/well for MCF-7 cells. Tests were performed in 96-well plates (Sarstedt AG, Nümbrecht, Germany). After incubation overnight, cells were supplemented with half logarithmic dilution series of the indicated compounds and DPBS (PAN Biotech GmbH, Aidenbach, Germany) as control. Then 72 h after addition of cytostatic treatment, the MTT solution (20 μL, 5 mg/mL) was added into the wells for 1 h at 37 °C and 5% CO2 until formazan crystals were formed. The supernatant was removed, and the cells were dissolved in 200 μL of DMSO. Absorption was analyzed at 570 nm, with background subtraction at 690 nm, using a plate reader (Thermomultiscan EX, Thermo, Schwerte, Germany). Cell viability was then determined by nonlinear regression and a four-parameter logistic equation with variable hill slope. […] The significance of the difference of the effects of 33 and 4 + 57 was determined by using an unpaired, two-tailed t test with Welch’s correction, implemented in GraphPad Prism 8.4.0 (GraphPad, USA). Statistical significance was accepted if p < 0.05. Asterisks indicate *p < 0.05, **p < 0.01.

HDAC6 = biological target: T2, HDAC6 (Homo sapiens, UniProt Q9UBN7); assay: HDAC6 in vitro deacetylation assay (ZMAL); type: biochemical; parameters: purchased BPS Bioscience 50006; conditions: deacetylation, mean ± SD
T2 sequence (Q9UBN7 1-1215): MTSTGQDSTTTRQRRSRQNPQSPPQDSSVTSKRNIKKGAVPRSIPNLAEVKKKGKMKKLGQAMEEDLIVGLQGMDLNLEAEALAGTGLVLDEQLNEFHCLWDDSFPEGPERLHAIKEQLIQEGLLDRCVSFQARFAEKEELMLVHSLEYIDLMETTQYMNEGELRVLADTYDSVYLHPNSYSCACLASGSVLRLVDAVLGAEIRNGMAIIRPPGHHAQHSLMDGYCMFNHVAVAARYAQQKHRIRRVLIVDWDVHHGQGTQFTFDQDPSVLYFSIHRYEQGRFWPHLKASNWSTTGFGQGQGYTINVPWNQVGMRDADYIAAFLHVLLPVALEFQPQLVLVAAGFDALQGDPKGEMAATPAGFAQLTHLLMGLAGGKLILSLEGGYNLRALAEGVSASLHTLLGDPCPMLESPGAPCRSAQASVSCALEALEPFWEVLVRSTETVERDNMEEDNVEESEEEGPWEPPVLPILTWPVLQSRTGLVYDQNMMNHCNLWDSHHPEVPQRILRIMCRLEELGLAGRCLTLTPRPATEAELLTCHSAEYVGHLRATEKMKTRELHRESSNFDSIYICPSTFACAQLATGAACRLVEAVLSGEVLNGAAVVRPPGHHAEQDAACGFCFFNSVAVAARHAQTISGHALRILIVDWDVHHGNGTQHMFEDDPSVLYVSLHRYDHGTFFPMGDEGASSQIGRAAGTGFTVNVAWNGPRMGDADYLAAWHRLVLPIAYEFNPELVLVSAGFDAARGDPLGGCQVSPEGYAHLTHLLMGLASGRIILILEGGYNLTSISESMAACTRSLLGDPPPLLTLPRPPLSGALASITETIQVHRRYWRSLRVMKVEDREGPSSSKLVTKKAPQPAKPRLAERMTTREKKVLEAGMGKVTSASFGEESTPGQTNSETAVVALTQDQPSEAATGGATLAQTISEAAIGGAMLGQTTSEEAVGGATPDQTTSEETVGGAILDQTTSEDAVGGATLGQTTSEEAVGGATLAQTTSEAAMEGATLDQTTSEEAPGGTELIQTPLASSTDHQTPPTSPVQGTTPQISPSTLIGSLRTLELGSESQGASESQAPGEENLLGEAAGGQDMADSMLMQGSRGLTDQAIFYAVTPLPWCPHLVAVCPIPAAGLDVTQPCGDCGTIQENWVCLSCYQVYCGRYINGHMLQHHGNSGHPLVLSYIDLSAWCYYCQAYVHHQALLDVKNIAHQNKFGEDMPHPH

W1 ovarian cancer cells = assay: Cell viability assay (MTT) W1; type: cell-based; conditions: 72 h; for W1 cellular effect: @ 50 μM
Protocol: as §1

Sirt2 [2] = biological target: T3, Sirt2 (Homo sapiens, UniProt Q8IXJ6); assay: Sirt2 in vitro deacetylation assay (ZMAL, trypsin-based fluorescence); type: biochemical; conditions: for IC50: deacetylation, mean ± SD
T3 construct: the respective sirtuin (Sirt1_134–747, Sirt2_56–356, or Sirt3_118–395) was mixed with; made in house; host or cells: Escherichia coli BL21 Star (DE3)
T3 sequence (Q8IXJ6 56-356): T1 sequence (Q8IXJ6 56-356)

[3] = system: HGC27 gastric carcinoma cells; assay: Cell viability assay (MTS) HGC27; type: cell-based; conditions: 72 h; for HGC27 cellular effect: @ 50 μM
Protocol: as §1

Sirt1 = biological target: T4, Sirt1 (Homo sapiens, UniProt Q96EB6); assay: Sirt1 in vitro deacetylation assay (ZMAL); type: biochemical
T4 construct: the respective sirtuin (Sirt1_134–747, Sirt2_56–356, or Sirt3_118–395) was mixed with; made in house; host or cells: Escherichia coli BL21 Star (DE3)
T4 sequence (Q96EB6 134-747): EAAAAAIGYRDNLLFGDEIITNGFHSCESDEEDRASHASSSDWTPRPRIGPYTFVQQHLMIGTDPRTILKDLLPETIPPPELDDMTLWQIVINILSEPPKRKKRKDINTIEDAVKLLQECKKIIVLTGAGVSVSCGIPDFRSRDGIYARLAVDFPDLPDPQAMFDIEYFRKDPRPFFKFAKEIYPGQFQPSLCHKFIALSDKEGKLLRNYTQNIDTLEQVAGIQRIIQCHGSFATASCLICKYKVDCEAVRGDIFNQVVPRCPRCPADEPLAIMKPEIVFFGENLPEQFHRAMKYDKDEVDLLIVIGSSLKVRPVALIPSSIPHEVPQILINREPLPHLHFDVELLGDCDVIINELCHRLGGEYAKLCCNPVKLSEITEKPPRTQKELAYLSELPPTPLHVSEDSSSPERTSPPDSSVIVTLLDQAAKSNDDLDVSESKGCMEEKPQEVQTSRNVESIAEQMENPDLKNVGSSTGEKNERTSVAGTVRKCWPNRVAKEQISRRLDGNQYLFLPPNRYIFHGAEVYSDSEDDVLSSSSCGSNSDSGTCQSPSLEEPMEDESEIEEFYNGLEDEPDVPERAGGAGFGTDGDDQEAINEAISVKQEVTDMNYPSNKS

[4] = system: MCF-7 breast cancer cells; assay: Cell viability assay (MTT) MCF-7; type: cell-based; conditions: 72 h; for MCF-7 cellular effect: @ 50 μM
Protocol: as §1

Sirt3 = biological target: T5, Sirt3 (Homo sapiens, UniProt Q9NTG7); assay: Sirt3 in vitro deacetylation assay (ZMAL); type: biochemical
T5 construct: the respective sirtuin (Sirt1_134–747, Sirt2_56–356, or Sirt3_118–395) was mixed with; made in house; host or cells: Escherichia coli BL21 Star (DE3)
T5 sequence (Q9NTG7 118-395): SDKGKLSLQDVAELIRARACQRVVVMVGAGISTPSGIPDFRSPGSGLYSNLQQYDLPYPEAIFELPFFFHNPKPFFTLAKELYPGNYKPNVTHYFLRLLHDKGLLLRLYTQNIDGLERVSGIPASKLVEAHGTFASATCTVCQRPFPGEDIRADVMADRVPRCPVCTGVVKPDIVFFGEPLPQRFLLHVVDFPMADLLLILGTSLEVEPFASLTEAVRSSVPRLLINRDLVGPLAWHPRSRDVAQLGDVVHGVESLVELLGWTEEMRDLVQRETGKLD

HDAC1 = biological target: T6, HDAC1 (Homo sapiens, UniProt Q13547); assay: HDAC1 in vitro deacetylation assay (ZMAL); type: biochemical; conditions: deacetylation, mean ± SD
T6 construct: purchased BPS Bioscience 50051

Sirt2 [5] = biological target: T7, Sirt2 (Homo sapiens, UniProt Q8IXJ6); assay: Cell-based NanoBRET assay for Sirt2 target engagement in HEK293T cells; conditions: tracer SirReal-TAMRA 2 μM
T7 construct: expressed in transfected cells; host or cells: HEK293T
T7 sequence (Q8IXJ6 1-389): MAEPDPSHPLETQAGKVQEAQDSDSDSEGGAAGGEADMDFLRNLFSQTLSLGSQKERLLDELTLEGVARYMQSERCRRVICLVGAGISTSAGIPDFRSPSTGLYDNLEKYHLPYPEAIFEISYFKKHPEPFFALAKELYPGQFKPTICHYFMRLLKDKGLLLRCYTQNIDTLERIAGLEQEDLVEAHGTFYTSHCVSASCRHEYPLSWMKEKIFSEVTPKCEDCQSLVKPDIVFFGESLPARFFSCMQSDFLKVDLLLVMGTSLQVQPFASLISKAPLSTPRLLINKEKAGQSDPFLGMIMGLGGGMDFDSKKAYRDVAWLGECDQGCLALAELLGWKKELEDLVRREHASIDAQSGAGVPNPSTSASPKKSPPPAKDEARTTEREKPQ

T6 sequence (Q13547 whole entry): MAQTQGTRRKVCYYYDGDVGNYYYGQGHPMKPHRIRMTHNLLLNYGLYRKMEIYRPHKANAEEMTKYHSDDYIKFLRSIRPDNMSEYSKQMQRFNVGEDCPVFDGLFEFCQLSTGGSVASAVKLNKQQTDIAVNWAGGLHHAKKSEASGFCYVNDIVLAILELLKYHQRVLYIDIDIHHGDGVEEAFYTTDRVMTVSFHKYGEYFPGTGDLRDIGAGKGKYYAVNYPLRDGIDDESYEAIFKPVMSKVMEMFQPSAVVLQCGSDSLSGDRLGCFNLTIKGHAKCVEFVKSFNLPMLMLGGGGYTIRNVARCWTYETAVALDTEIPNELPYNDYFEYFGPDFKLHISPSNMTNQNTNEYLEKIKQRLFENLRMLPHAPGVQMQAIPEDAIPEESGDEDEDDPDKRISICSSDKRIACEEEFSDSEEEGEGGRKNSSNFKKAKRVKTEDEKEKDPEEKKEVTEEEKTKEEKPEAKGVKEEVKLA

inhibition at 20 µM (Sirt2 (demyristoylation)): < 15%
Compound: Cc1cc(C)nc(SCC(=O)Nc2ncc(Cc3cccc(C(=O)NO)c3)s2)n1 [Compound 21, 3-((2-(2-((4,6-Dimethylpyrimidin-2-yl)thio)acetamido)thiazol-5-yl)methyl)-N-hydroxybenzamide]

IC50 (HDAC6): 9.6 ± 0.3 nM
IC50 (Sirt2 [2]): 480 ± 40 nM
IC50 (Sirt2 (demyristoylation)): 34000 ± 2000 nM
inhibition at 20 µM (Sirt1): < 15%
inhibition at 20 µM (Sirt3): < 15%
IC50 (HDAC1): 600 ± 30 nM
Compound: Cc1cc(C)nc(SCC(=O)Nc2ncc(Cc3cccc(OCc4cn(CCOCCOCCOCCOCCC(=O)Nc5ccc(C(=O)NCc6ccc(C(=O)NO)cc6)cc5)nn4)c3)s2)n1 [Compound 44, 4-((4-(1-(4-((3-((2-(2-((4,6-Dimethylpyrimidin-2-yl)thio)acetamido)thiazol-5-yl)methyl)phenoxy)methyl)-1H-1,2,3-triazol-1-yl)-3,6,9,12-tetraoxapentadecan-15-amido)benzamido)methyl)-N-hydroxybenzamide]
PC-3M-luc cellular effect [1]: ni ^b (ni = no inhibition (cellular effect <20% @ 50 μM))
W1 cellular effect (W1 ovarian cancer cells): ni ^b (ni = no inhibition (cellular effect <20% @ 50 μM))
HGC27 cellular effect [3]: ni ^b (ni = no inhibition (cellular effect <20% @ 50 μM))
MCF-7 cellular effect [4]: ni ^b (ni = no inhibition (cellular effect <20% @ 50 μM))

IC50 (HDAC6): 17 ± 1 nM
IC50 (Sirt2 [2]): 540 ± 10 nM
IC50 (Sirt2 (demyristoylation)): 2800 ± 600 nM
inhibition at 20 µM (Sirt1): < 15%
inhibition at 20 µM (Sirt3): < 15%
IC50 (HDAC1): 460 ± 50 nM
Compound: Cc1cc(C)nc(SCC(=O)Nc2ncc(Cc3cccc(OCc4cn(CCOCCOCCOCCOCCOCCOCCOCCOCCOCCOCCC(=O)Nc5ccc(C(=O)NCc6ccc(C(=O)NO)cc6)cc5)nn4)c3)s2)n1 [Compound 45, 4-((4-(1-(4-((3-((2-(2-((4,6-Dimethylpyrimidin-2-yl)thio)acetamido)thiazol-5-yl)methyl)phenoxy)methyl)-1H-1,2,3-triazol-1-yl)-3,6,9,12,15,18,21,24,27,30-decaoxatritriacontan-33-amido)benzamido)methyl)-N-hydroxybenzamide]
PC-3M-luc cellular effect [1]: ni ^b (ni = no inhibition (cellular effect <20% @ 50 μM))
W1 cellular effect (W1 ovarian cancer cells): ni ^b (ni = no inhibition (cellular effect <20% @ 50 μM))
HGC27 cellular effect [3]: ni ^b (ni = no inhibition (cellular effect <20% @ 50 μM))
MCF-7 cellular effect [4]: ni ^b (ni = no inhibition (cellular effect <20% @ 50 μM))

IC50 (HDAC6): 650 ± 40 nM
inhibition at 20 µM (Sirt2 (demyristoylation)): < 15%
IC50 (HDAC1): 17000 ± 1000 nM
Compound: CC(=O)NCc1ccc(C(=O)NO)cc1 [Compound 55, 4-(Acetamidomethyl)-N-hydroxybenzamide]

Compound: O=C(NO)c1ccc(CNC(=O)c2ccccc2)cc1 [Compound 56, 4-(Benzamidomethyl)-N-hydroxybenzamide]
IC50 (HDAC6): 18 ± 1 nM
inhibition at 20 µM (Sirt2 (demyristoylation)): < 15%
IC50 (HDAC1): 810 ± 50 nM

EC50 ([1]; PC-3M-luc, read-out: PC-3M-luc cell viability EC50, MTS, mean ± SD): 30100 ± 2300 nM
EC50 (W1 ovarian cancer cells; MTT, mean ± SD): 33600 ± 4100 nM
inhibition at 20 µM (Sirt2 [2]; @ 20 μM): < 15%
Sirt2 inhibition (Sirt2 [2]; supplementary CSV, column IC50 Sirt2 [µM]): n.i.
EC50 ([3]; Homo sapiens, HGC-27, MTS, mean ± SD): 21100 ± 1600 nM
inhibition at 5 µM (Sirt2 (demyristoylation); @ 5 μM, read-out: Sirt2 (demyristoylation) percentual inhibition): < 15%
EC50 ([4]; Homo sapiens, MCF7, MTT, mean ± SD): 16300 ± 5900 nM
Cellular Sirt2 binding (NanoBRET) (Sirt2 [5]): no Sirt2 binding
Compound: CCCCC(=O)N(CCCC)Cc1ccc(C(=O)NO)cc1 [Compound 57, 4-((N-Butylpentanamido)methyl)-N-hydroxybenzamide]

Compound: O=C(CCCCCCC(=O)Nc1ccccc1)NO [SAHA, suberoylanilide hydroxamic acid, reference compound]
Sirt2 (demyristoylation) percentual inhibition (Sirt2 (demyristoylation); @ 10 μM): 18% @ 10 μM

From paper PMC10641818, “Development of First-in-Class Dual Sirt2/HDAC6 Inhibitors as Molecular Tools for Dual Inhibition of Tubulin Deacetylation” (Journal of Medicinal Chemistry, 2023)
